Columns and labels:
Experiment in all cases: competitive isoTOP-ABPP
Format in all cases: binding
[1] = biological target: T1, GTPBP3 tRNA modification GTPase GTPBP3, mitochondrial (Homo sapiens, UniProt Q969Y2); details: for isoTOP-ABPP ratio (R) at liganded lysine Q969Y2_K492: sol, 231
T1 construct: isoTOP-ABPP experiments performed in cell lysates (in vitro); endogenous in cells; host or cells: soluble proteome of human cancer cell lines (MDA-MB-231; Ramos and Jurkat also prepared)
T1 sequence (Q969Y2 21-492): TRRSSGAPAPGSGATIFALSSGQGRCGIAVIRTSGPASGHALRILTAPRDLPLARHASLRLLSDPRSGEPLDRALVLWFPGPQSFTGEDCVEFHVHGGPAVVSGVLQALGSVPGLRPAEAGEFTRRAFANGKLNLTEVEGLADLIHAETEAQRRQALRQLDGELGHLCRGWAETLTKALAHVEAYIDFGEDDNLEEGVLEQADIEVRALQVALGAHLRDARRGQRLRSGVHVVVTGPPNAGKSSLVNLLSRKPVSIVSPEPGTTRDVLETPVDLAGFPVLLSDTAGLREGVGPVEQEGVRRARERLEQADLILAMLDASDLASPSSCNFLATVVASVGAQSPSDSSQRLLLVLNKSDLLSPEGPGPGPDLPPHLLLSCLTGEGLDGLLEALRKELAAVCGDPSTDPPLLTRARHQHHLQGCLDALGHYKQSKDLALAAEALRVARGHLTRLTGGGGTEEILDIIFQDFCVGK
Procedure, shortened: (§1)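 Competition format: fragment (50 μM activated ester, 100 μM guanidinylating agent) versus vehicle in lysate, then lysine probe STP-alkyne at 0.1 mM for 1 h. Quantitation by light/heavy TEV-tag MS1 peak areas, reported as R.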

[2] = biological target: T2, KPNA2 Importin subunit alpha-2 (Homo sapiens, UniProt P52292); details: for isoTOP-ABPP ratio (R) at liganded lysine P52292_K459 / isoTOP-ABPP reactivity ratio at lysine P52292_K459 / R value (DMSO/fragment) for probe 1 labeling: 50 uM, in vitro; for isoTOP-ABPP ratio (R) at liganded lysine P52292_K459: sol, 231; for isoTOP-ABPP reactivity ratio at lysine P52292_K459 / R value (DMSO/fragment) for probe 1 labeling: 231 sol; for R value (DMSO/fragment) for probe 1 labeling: P52292_K459
T2 construct: isoTOP-ABPP experiments performed in cell lysates (in vitro); endogenous in cells; host or cells: soluble proteome of human cancer cell lines (MDA-MB-231, Ramos, Jurkat)
Procedure, shortened: as §1

[3] = biological target: T3, MAP2K3 Dual specificity mitogen-activated protein kinase (Homo sapiens, UniProt P46734); details: for isoTOP-ABPP ratio (R) at liganded lysine P46734_K93 / isoTOP-ABPP reactivity ratio at lysine P46734_K93 / R value (DMSO/fragment) for probe 1 labeling: 50 uM, in vitro; for isoTOP-ABPP ratio (R) at liganded lysine P46734_K93: sol, 231; for isoTOP-ABPP reactivity ratio at lysine P46734_K93 / R value (DMSO/fragment) for probe 1 labeling: 231 sol; for R value (DMSO/fragment) for probe 1 labeling: P46734_K93
T3 construct: isoTOP-ABPP experiments performed in cell lysates (in vitro); endogenous in cells; host or cells: soluble proteome of human cancer cell lines (MDA-MB-231; Ramos and Jurkat also prepared)
T3 sequence (P46734 1-347): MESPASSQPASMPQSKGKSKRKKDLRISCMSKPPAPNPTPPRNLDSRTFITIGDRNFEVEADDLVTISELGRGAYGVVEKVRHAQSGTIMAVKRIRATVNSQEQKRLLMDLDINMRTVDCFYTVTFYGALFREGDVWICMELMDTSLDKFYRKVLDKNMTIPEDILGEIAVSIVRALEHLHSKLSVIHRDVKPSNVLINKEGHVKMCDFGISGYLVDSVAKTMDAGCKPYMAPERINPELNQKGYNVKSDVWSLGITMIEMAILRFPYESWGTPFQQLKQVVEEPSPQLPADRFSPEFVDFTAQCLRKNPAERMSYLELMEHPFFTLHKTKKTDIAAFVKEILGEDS
Procedure, shortened: as §1

O=C(CCc1coc2cc(F)ccc2c1=O)Oc1ccc([N+](=O)[O-])cc1[N+](=O)[O-] [fragment 36, 2,4-Dinitrophenyl 3-(7-fluoro-4-oxo-4H-chromen-3-yl)propanoate]
isoTOP-ABPP ratio (R) at liganded lysine Q969Y2_K492 ([1]; 50 uM, in vitro): 2.9 | isoTOP-ABPP ratio (R) at liganded lysine P52292_K459 [2]: 9.2 | isoTOP-ABPP ratio (R) at liganded lysine P46734_K93 [3]: 0.9

O=C(Oc1ccc([N+](=O)[O-])cc1[N+](=O)[O-])C(c1ccccc1)(c1ccccc1)c1ccccc1 [fragment 42, 2,4-Dinitrophenyl 2,2,2-triphenylacetate]
isoTOP-ABPP ratio (R) at liganded lysine Q969Y2_K492 ([1]; 50 uM, in vitro): 0.9 | isoTOP-ABPP ratio (R) at liganded lysine P52292_K459 [2]: 0.9 | isoTOP-ABPP ratio (R) at liganded lysine P46734_K93 [3]: 0.9

O=C(CCc1coc2cc(F)ccc2c1=O)Oc1c(F)c(F)c(F)c(F)c1F [fragment 26, Pentafluorophenyl 3-(7-fluoro-4-oxo-4H-chromen-3-yl)propanoate]
isoTOP-ABPP reactivity ratio at lysine Q969Y2_K492 ([1]; 50 uM, 231 sol, in vitro): 5.0 | isoTOP-ABPP reactivity ratio at lysine P52292_K459 [2]: 8.2 | isoTOP-ABPP reactivity ratio at lysine P46734_K93 [3]: 1.1

O=C(Oc1ccc([N+](=O)[O-])cc1[N+](=O)[O-])c1ccccc1Nc1cccc(C(F)(F)F)c1 [fragment 40, 2,4-Dinitrophenyl 2-((3-(trifluoromethyl)phenyl)amino)benzoate]
isoTOP-ABPP ratio (R) at liganded lysine Q969Y2_K492 ([1]; 50 uM, in vitro): 0.6 | isoTOP-ABPP ratio (R) at liganded lysine P52292_K459 [2]: 1.7 | isoTOP-ABPP ratio (R) at liganded lysine P46734_K93 [3]: 1.0

O=C(Oc1ccc([N+](=O)[O-])cc1[N+](=O)[O-])C1CCN(C(=O)OCc2ccccc2)CC1 [fragment 34, 1-Benzyl 4-(2,4-dinitrophenyl) piperidine-1,4-dicarboxylate]
isoTOP-ABPP ratio (R) at liganded lysine Q969Y2_K492 ([1]; 50 uM, in vitro): 1.6 | isoTOP-ABPP ratio (R) at liganded lysine P52292_K459 [2]: 1.0 | isoTOP-ABPP ratio (R) at liganded lysine P46734_K93 [3]: 0.8

Cn1cc(CC(=O)Oc2c(F)c(F)c(F)c(F)c2F)c2ccccc21 [fragment 22, Pentafluorophenyl 2-(1-methyl-1H-indol-3-yl)acetate]
R value (DMSO/fragment) for probe 1 labeling ([1]; Q969Y2_K492, 50 uM, 231 sol, in vitro): 1.1 | R value (DMSO/fragment) for probe 1 labeling [2]: 6.2 | R value (DMSO/fragment) for probe 1 labeling [3]: 0.9

O=C(Oc1c(F)c(F)c(C(F)(F)F)c(F)c1F)c1cc(C(F)(F)F)cc(C(F)(F)F)c1 [fragment 47, 2,3,5,6-Tetrafluoro-4-(trifluoromethyl)phenyl 3,5-bis(trifluoromethyl)benzoate]
isoTOP-ABPP ratio, lysine Q969Y2_K492 ([1]; 50 uM_231_sol_in vitro): 1.7 | isoTOP-ABPP ratio, lysine P52292_K459 ([2]; 50 uM_231_sol_in vitro): 1.2 | isoTOP-ABPP ratio, lysine P46734_K93 ([3]; 50 uM_231_sol_in vitro): 1.1

O=C(CC12CC3CC(CC(C3)C1)C2)Oc1ccc([N+](=O)[O-])cc1[N+](=O)[O-] [fragment 38, 2,4-Dinitrophenyl 2-(adamantan-1-yl)acetate]
isoTOP-ABPP ratio (R) at liganded lysine Q969Y2_K492 ([1]; 50 uM, in vitro): 1.1 | isoTOP-ABPP ratio (R) at liganded lysine P52292_K459 [2]: 20.0 | isoTOP-ABPP ratio (R) at liganded lysine P46734_K93 [3]: 0.9

O=C(ON1C(=O)CCC1=O)c1cc(C(F)(F)F)cc(C(F)(F)F)c1 [fragment 46, 3,5-Bis(trifluoromethyl)benzoic acid NHS ester]
isoTOP-ABPP ratio, lysine Q969Y2_K492 ([1]; 50 uM_231_sol_in vitro): 1.9 | isoTOP-ABPP ratio, lysine P52292_K459 ([2]; 50 uM_231_sol_in vitro): 1.4 | isoTOP-ABPP ratio, lysine P46734_K93 ([3]; 50 uM_231_sol_in vitro): 1.3

NC(=O)c1cc(C(F)(F)F)cc(C(F)(F)F)c1 [fragment 51, reference compound]
isoTOP-ABPP ratio, lysine P52292_K459 ([2]; 50 uM_231_sol_in vitro): 0.9 | isoTOP-ABPP ratio, lysine P46734_K93 ([3]; 50 uM_231_sol_in vitro): 1.0

O=C(CN1C(=O)c2ccccc2C1=O)Oc1c(F)c(F)c(F)c(F)c1F [fragment 27, Pentafluorophenyl 2-(1,3-dioxoisoindolin-2-yl)acetate]
isoTOP-ABPP reactivity ratio at lysine Q969Y2_K492 ([1]; 50 uM, 231 sol, in vitro): 1.6 | isoTOP-ABPP reactivity ratio at lysine P52292_K459 [2]: 1.3

O=C(CCc1cn(-c2ccccc2)nc1-c1ccccc1)Oc1c(F)c(F)c(F)c(F)c1F [fragment 19, Pentafluorophenyl 3-(1,3-diphenyl-1H-pyrazol-4-yl)propanoate]
R value (DMSO/fragment) for probe 1 labeling [2]: 2.3 | R value (DMSO/fragment) for probe 1 labeling [3]: 0.9

COc1cc(CCC(=O)Oc2ccc([N+](=O)[O-])cc2[N+](=O)[O-])cc(OC)c1OC [fragment 33, 2,4-Dinitrophenyl 3-(3,4,5-trimethoxyphenyl)propanoate]
isoTOP-ABPP reactivity ratio at lysine P52292_K459 [2]: 1.8 | isoTOP-ABPP reactivity ratio at lysine P46734_K93 [3]: 0.9

O=C(Oc1ccc([N+](=O)[O-])cc1[N+](=O)[O-])C(c1ccccc1)c1ccccc1 [fragment 30, 2,4-Dinitrophenyl 2,2-diphenylacetate]
isoTOP-ABPP reactivity ratio at lysine Q969Y2_K492 ([1]; 50 uM, 231 sol, in vitro): 1.5 | isoTOP-ABPP reactivity ratio at lysine P52292_K459 [2]: 4.3 | isoTOP-ABPP reactivity ratio at lysine P46734_K93 [3]: 1.4

O=C(Oc1ccc([N+](=O)[O-])cc1[N+](=O)[O-])c1cc(C(F)(F)F)cc(C(F)(F)F)c1 [fragment 31, 2,4-Dinitrophenyl 3,5-bis(trifluoromethyl)benzoate]
isoTOP-ABPP reactivity ratio at lysine Q969Y2_K492 ([1]; 50 uM, 231 sol, in vitro): 1.4 | isoTOP-ABPP reactivity ratio at lysine P52292_K459 [2]: 1.3 | isoTOP-ABPP reactivity ratio at lysine P46734_K93 [3]: 1.2

O=C(CCc1cn(-c2ccccc2)nc1-c1ccccc1)Oc1ccc([N+](=O)[O-])cc1[N+](=O)[O-] [fragment 29, 2,4-Dinitrophenyl 3-(1,3-diphenyl-1H-pyrazol-4-yl)propanoate]
isoTOP-ABPP reactivity ratio at lysine Q969Y2_K492 ([1]; 50 uM, 231 sol, in vitro): 20.0 | isoTOP-ABPP reactivity ratio at lysine P52292_K459 [2]: 2.0 | isoTOP-ABPP reactivity ratio at lysine P46734_K93 [3]: 0.9

CC(=O)Oc1ccc([N+](=O)[O-])cc1[N+](=O)[O-] [fragment 43, 2,4-Dinitrophenyl acetate]
isoTOP-ABPP ratio (R) at liganded lysine Q969Y2_K492 ([1]; 50 uM, in vitro): 1.5 | isoTOP-ABPP ratio (R) at liganded lysine P52292_K459 [2]: 2.6 | isoTOP-ABPP ratio (R) at liganded lysine P46734_K93 [3]: 1.0

O=C(Oc1c(F)c(F)cc(F)c1F)c1cc(C(F)(F)F)cc(C(F)(F)F)c1 [fragment 48, 2,3,5,6-Tetrafluorophenyl 3,5-bis(trifluoromethyl)benzoate]
isoTOP-ABPP ratio, lysine Q969Y2_K492 ([1]; 50 uM_231_sol_in vitro): 1.4 | isoTOP-ABPP ratio, lysine P52292_K459 ([2]; 50 uM_231_sol_in vitro): 1.1 | isoTOP-ABPP ratio, lysine P46734_K93 ([3]; 50 uM_231_sol_in vitro): 1.1

CC(C)(C)OC(=O)N=C(NC(=O)OC(C)(C)C)n1cccn1 [fragment 50, reference compound]
isoTOP-ABPP ratio, lysine Q969Y2_K492 ([1]; 100 uM_231_sol_in vitro): 0.9 | isoTOP-ABPP ratio, lysine P52292_K459 ([2]; 100 uM_231_sol_in vitro): 1.6 | isoTOP-ABPP ratio, lysine P46734_K93 ([3]; 100 uM_231_sol_in vitro): 1.8

N#Cc1ccc(C(=O)Oc2ccc([N+](=O)[O-])cc2[N+](=O)[O-])cc1 [fragment 44, 2,4-Dinitrophenyl 4-cyanobenzoate]
isoTOP-ABPP ratio, lysine Q969Y2_K492 ([1]; 50 uM_231_sol_in vitro): 0.9 | isoTOP-ABPP ratio, lysine P52292_K459 ([2]; 50 uM_231_sol_in vitro): 1.6 | isoTOP-ABPP ratio, lysine P46734_K93 ([3]; 50 uM_231_sol_in vitro): 0.8

COC(=O)NC(=NC(=O)OCC1c2ccccc2-c2ccccc21)n1cccn1 [fragment 49, N-Methoxycarbonyl-N′-9-fluorenylmethoxycarbonyl-pyrazole-1-carboxamidine]
isoTOP-ABPP ratio, lysine P52292_K459 ([2]; 100 uM_231_sol_in vitro): 1.1 | isoTOP-ABPP ratio, lysine P46734_K93 ([3]; 100 uM_231_sol_in vitro): 6.8

O=C(Oc1ccc([N+](=O)[O-])cc1[N+](=O)[O-])c1ccc2ccccc2n1 [fragment 35, 2,4-Dinitrophenyl quinoline-2-carboxylate]
isoTOP-ABPP ratio (R) at liganded lysine P52292_K459 [2]: 1.3 | isoTOP-ABPP ratio (R) at liganded lysine P46734_K93 [3]: 1.0

CCn1cc(C(=O)Oc2c(F)c(F)c(F)c(F)c2F)c(=O)c2ccc(C)nc21 [fragment 28, Pentafluorophenyl 1-ethyl-7-methyl-4-oxo-1,4-dihydro-1,8-naphthyridine-3-carboxylate]
isoTOP-ABPP reactivity ratio at lysine P52292_K459 [2]: 1.3

CC(C)(C)OC(=O)NCCCC(=O)Oc1ccc([N+](=O)[O-])cc1[N+](=O)[O-] [fragment 41, 2,4-Dinitrophenyl 4-((tert-butoxycarbonyl)amino)butanoate]
isoTOP-ABPP ratio (R) at liganded lysine P52292_K459 [2]: 2.3 | isoTOP-ABPP ratio (R) at liganded lysine P46734_K93 [3]: 0.9

O=C(Oc1c(F)c(F)c(F)c(F)c1F)C1CCN(C(=O)OCc2ccccc2)CC1 [fragment 24, 1-Benzyl 4-(pentafluorophenyl) piperidine-1,4-dicarboxylate]
isoTOP-ABPP reactivity ratio at lysine P52292_K459 [2]: 1.2

O=C(Oc1c(F)c(F)c(F)c(F)c1F)c1ccc2ccccc2n1 [fragment 25, Pentafluorophenyl quinoline-2-carboxylate]
isoTOP-ABPP reactivity ratio at lysine P52292_K459 [2]: 1.3

COc1cc(CCC(=O)Oc2c(F)c(F)c(F)c(F)c2F)cc(OC)c1OC [fragment 23, Pentafluorophenyl 3-(3,4,5-trimethoxyphenyl)propanoate]
R value (DMSO/fragment) for probe 1 labeling [2]: 1.9 | R value (DMSO/fragment) for probe 1 labeling [3]: 0.9
